Results as given in patent publication US10329304B2, “Compounds and methods for inhibition of hedgehog signaling and phosphodiesterase” (Vanderbilt University, priority 2014, dated 2019).

What follows are compounds tested on zebrafish embryos (assay: Zebrafish embryo phenotypic assay (ZF)). Conditions: wild-type embryonic zebrafish, dosed 5 hpf.
Type: in vivo
Protocol: All zebrafish experiments were approved by Vanderbilt University Institutional Animal Care and Use Committee. Wild-type zebrafish of AB strain were maintained using standard protocols. Chemical screen for small molecules was performed as previously described. Briefly, pairs of zebrafish were mated, and fertilized eggs were arrayed in 96-well microtiter plates (5 embryos/well) containing 250 μl E3 water. At ˜4-hpf, small molecule library from Vanderbilt High Throughput Screening Facility was added to each well to the final concentration of 5 μM. Embryos were incubated at 28.5° C. until 24 and 48-hpf, when they were examined for gross morphologic changes indicative of disruption in embryonic patterning. A total of ˜30,000 compounds were screened.
ZF refers to wild-type embryonic zebrafish phenotypic assay involving dosing n=˜10 embryos in E3 egg water with compound from either a stock of 1 mM or 10 mM in DMSO at 5 hours post-fertilization and observing at 24, 48, and 72 hours post-fertilization.

| SMILES | ZF Phenotype EC100 [µM] |
| --- | --- |
| O=C(CSc1nc2sc3c(c2c(=O)n1-c1ccccn1)CCCC3)c1cccs1 [JEH-1-034] | 1 |
| O=C(CSc1nc2sc3c(c2c(=O)n1-c1ccc(Br)cc1)CCCC3)c1cccs1 [JEH-1-050-1] | >50 |
| O=C(CSc1nc2sc3c(c2c(=O)n1-c1ccc(Cl)cn1)CCCC3)c1cccs1 [JEH-1-050-2] | 25 |
| O=C(CSc1nc2sccc2c(=O)n1CC1CC1)c1cccs1 [JEH-1-065-1] | 5 |
| O=C(CSc1nc2sccc2c(=O)n1C1CC1)c1cccs1 [JEH-1-065-2] | 10 |
| O=C(O)c1ccc(-n2c(SCC(=O)c3cccs3)nc3sc4c(c3c2=O)CCCC4)cc1 [JEH-1-066] | >50 |
| O=C(CSc1nc2sc3c(c2c(=O)n1C1CC1)CCNC3)c1cccs1 [JEH-1-097] | >50 |
| O=C(CSc1nc2sccc2c(=O)n1C1CC1)N1CCOCC1 [JEH-1-103] | >50 |
| C=C(C)Cn1c(SCC(=O)N2CCOCC2)nc2sccc2c1=O [JEH-1-104] | >50 |
| O=C(CSc1nc2sc3c(c2c(=O)n1C1CC1)CCN(C(=O)C1CC1)C3)c1cccs1 [JEH-1-124] | >50 |
| CSc1nc2sc3c(c2c(=O)n1C1CC1)CCCC3 [JEH-1-127] | >50 |
| CSc1nc2sccc2c(=O)n1C1CC1 [JEH-1-131-2] | >50 |
| O=C(CSc1nc2ccccc2c(=O)n1C1CC1)c1cccs1 [JEH-1-134] | 1 |
| O=C(CSc1nc2ncccc2c(=O)n1C1CC1)c1cccs1 [JEH-1-137] | >50 |
| O=C(CSc1nc2sc3c(c2c(=O)n1C1CC1)CCOC3)c1cccs1 [JEH-1-161-1] | 0.5 |
| O=C(CSc1nc2sc3c(c2c(=O)n1C1CC1)CCSC3)c1cccs1 [JEH-1-161-2] | 1 |
| O=c1c2ccsc2nc(SCc2ccccc2)n1C1CC1 [JEH-1-190-1] | 50 |
| O=c1c2ccsc2nc(SCc2ccc(Br)cc2)n1C1CC1 [JEH-1-190-2] | 50 |
| CC(C1CC1)n1c(SCC(=O)c2ccccc2)nc2sccc2c1=O (stereo not shown) [JEH-2-003] | 30 |
| O=C(CSc1nc2sccc2c(=O)n1CC1CC1)c1ccccc1 [JEH-2-007-1] | 10 |
| COc1ccc(-c2cc3c(=O)n(C4CC4)c(SCC(=O)c4ccccc4)nc3s2)cc1 [JEH-2-018] | >50 |
| COC(=O)c1cc(-c2ccc(F)cc2)sc1NC(=S)NC1CC1 [JEH-2-026] | 25 |

| SMILES | ZF Phenotype EC100 [µM] |
| --- | --- |
| O=C(CSc1nc2sc(-c3ccc(F)cc3)cc2c(=O)n1C1CC1)c1ccccc1 [JEH-2-034] | >50 |
| CC(C1CC1)n1c(SCC(=O)Nc2ccccn2)nc2sccc2c1=O (stereo not shown) [JEH-2-041-1] | 20 |
| CC(C1CC1)n1c(SCC(=O)Nc2ccccc2O)nc2sccc2c1=O (stereo not shown) [JEH-2-041-2] | 30 |
| C#CCNC(=O)CSc1nc2sc3c(c2c(=O)n1CC(=C)C)CCCC3 [JEH-2-060] | 30 |
| C=C(C)Cn1c(SCC(=O)c2cc3ccccc3s2)nc2sc3c(c2c1=O)CCCC3 [KK-14-093-1] | >50 |
| C=C(C)Cn1c(SCC(=O)c2cc3ccccc3o2)nc2sc3c(c2c1=O)CCCC3 [KK-14-094-1] | >50 |
| C=C(C)Cn1c(SCC(=O)c2ccc(Cl)s2)nc2sc3c(c2c1=O)CCCC3 [KK-14-094-2] | >50 |
| C=C(C)Cn1c(SCc2nc3ccc(Cl)cc3o2)nc2sc3c(c2c1=O)CCCC3 [KK-14-094-3] | >50 |
| C=C(C)Cn1c(SCc2nc3ccc(C(=O)O)cc3[nH]2)nc2sc3c(c2c1=O)CCCC3 [KK-14-096-1] | >50 |
| C=C(C)Cn1c(SCc2nc3cc(OC)ccc3o2)nc2sc3c(c2c1=O)CCCC3 [KK-14-096-2] | >50 |
| C=C(C)Cn1c(SCc2nc3ccc(S(=O)(=O)Nc4ccccc4OC)cc3[nH]2)nc2sc3c(c2c1=O)CCCC3 [KK-093-2] | >50 |
| O=C(CSc1nc2sc3c(c2c(=O)n1C1CC1)CCN(C(=O)c1ccc(Cl)cc1)C3)c1ccccc1 [KYK-1-54] | >50 |
| O=C(CSc1nc2sc3c(c2c(=O)n1C1CC1)CCN(S(=O)(=O)c1ccc(Cl)cc1)C3)c1ccccc1 [KYK-1-58] | >50 |
| O=C(CSc1nc2sc3c(c2c(=O)n1C1CC1)CCN(S(=O)(=O)c1ccc([N+](=O)[O-])cc1)C3)c1ccccc1 [KYK-1-61] | >50 |
| Cn1cnc(S(=O)(=O)N2CCc3c(sc4nc(SCC(=O)c5ccccc5)n(C5CC5)c(=O)c34)C2)c1 [KYK-1-66] | >50 |
| COC(=O)c1c(NC(=S)SC)sc2c1CCNC2 [KYK-1-87] | >50 |
| O=C(CSc1nc2sc3c(c2c(=O)n1C1CC1)CCN(CCCc1ccccc1)C3)c1ccccc1 [KYK-1-88] | >50 |
| COC(=O)c1c(NC(=S)NC2CC2)sc2c1CCNC2 [KYK-1-96] | >50 |
| O=c1c2c3c(sc2[nH]c(=S)n1C1CC1)CNCC3 [KYK-1-99] | >50 |
| O=C(CSc1nc2sc3c(c2c(=O)n1C1CC1)CCN(Cc1ccco1)C3)c1ccccc1 [KYK-1-103-1] | >50 |
| CCCCN1CCc2c(sc3nc(SCC(=O)c4ccccc4)n(C4CC4)c(=O)c23)C1 [KYK-1-103-2] | >50 |

The compounds below were run on Hedgehog signaling (TM3-Gli-Luc) (assay: TM3-Gli-Luc luciferase reporter assay stimulated with 20 nM SAG). Conditions: not given.
Type: cell-based
Protocol: TM3-Gli-Luc cells were maintained on sterile 0.1% gelatin (from porcine skin, Type A, prepared in MilliQ water, autoclaved, then sterile-filtered) in 1:1 Dulbecco's Modified Eagle Medium (DMEM)/F12 supplemented with 5% horse serum, 2.5% fetal bovine serum (FBS), and 15 mM HEPES, hereafter referred to as TM3 Culture Medium. For small molecule evaluation, TM3-Gli-Luc cells were assayed on 0.1% gelatin in DMEM/F12 supplemented with 2.5% FBS and 15 mM HEPES, hereafter referred to as TM3Luc Medium. Sufu^−/− cells were maintained in DMEM supplemented with 4.5 g/L D-glucose, L-glutamine, 25 mM HEPES, and 10% FBS, hereafter referred to as D10 FBS. For small molecule evaluation, Sufu^−/− cells were assayed in DMEM supplemented with 4.5 g/L D-glucose, L-glutamine, 25 mM HEPES, and 0.5% FBS, hereafter referred to as D0.5 FBS. All cells were cultured at 37° C. with a 5% CO2 atmosphere.
On the day of cell plating, 96-well plates were coated with 50 μL/well of sterile 0.1% gelatin for 5 minutes then aspirated and replaced with 50 μL/well of TM3 Culture Medium. TM3-Gli-Luc cells were seeded at a density of 5,000 cells/well in TM3 Culture Medium and incubated for 24 hours. A master mix of 20 nM SAG in TM3Luc Medium was prepared, and small molecule solutions were prepared by adding the desired amount of compound from 10 mM DMSO stock to TM3Luc Medium containing 20 nM SAG. Negative control was prepared by adding an equi-volume amount of DMSO as compared to small molecule treated conditions to TM3Luc Medium not containing SAG. Cell plating medium was aspirated and replaced with 100 μL/well of prepared small molecule-containing media, and plates were incubated for 48 hours before proceeding to luciferase activity and cell viability reading.
TM3Luc Medium from compound treated plates was aspirated and replaced with 82 μL/well of Glo Lysis Buffer (Promega, Madison, Wis., USA), and plates were shaken at 300 rpm and room temperature for 12 minutes. Lysate was split between two white 96-well plates, 45 μL/well and 25 μL/well for luciferase reading and cell viability respectively. For luciferase activity monitoring, 45 μL/well of Steady Glo (Promega, Madison, Wis., USA) was added to 45 μL/well of cell lysate, incubated at room temperature for 5 minutes, then luminescence was measured on a Turner Biosystems Modulus Microplate Reader (Sunnyvale, Calif., USA) with an integration time of 0.5 seconds. For cell viability measurement, 25 μL/well of Cell Titer Glo (Promega, Madison, Wis., USA) (prepared by 1:10 dilution with Glo Lysis Buffer) was added to 25 μL/well of cell lysate, incubated at room temperature for 5 minutes, then luminescence was measured as above.
Luciferase activity data (Steady Glo) was divided by corresponding cell viability data (Cell Titer Glo) to arrive at a live cell number-normalized luciferase activity reading. The average of negative control data (DMSO treated) was subtracted from all wells, and percent activity was calculated by dividing all wells by the positive control (SAG treated) average. […] At least two independent assays tested on separate days were averaged to provide EC50±standard error of the mean.

| SMILES | TM3 G8 Luciferase % Inh., 2 pM [%] |
| --- | --- |
| C=C(C)Cn1c(SCC(=O)N2CCCC[C@H]2C)nc2sc3c(c2c1=O)CCCC3 [JEH-4-136] | 44.3 |

Same assay, conditions: 0.5 pM as printed

| SMILES | TM3 G8 Luciferase % Inh., 0.5 pM [%] |
| --- | --- |
| C=C(C)Cn1c(SCC(=O)N2CCCC[C@H]2C)nc2sc3c(c2c1=O)CCCC3 [JEH-4-136] | 3.7 |

Same assay, conditions: 20 nM SAG

| SMILES | Hh inhibitory activity / potency in words |
| --- | --- |
| C=C(C)Cn1c(SCC(=O)c2cccs2)nccc1=O [Formula 12] | complete loss of Hh inhibitory activity |
| C=C(C)Cn1c(SCC(=O)c2cccs2)nccc1=O [Formula 14a] | complete loss of activity |
| CC(O)(CSc1nc2sccc2c(=O)n1C1CC1)c1ccccc1 (stereo not shown) [Formula 20b] | only modest potency reductions |
| O=C(COc1nc2sccc2c(=O)n1C1CC1)c1ccccc1 [Formula 22a] | complete loss of inhibition |
| O=C(CNc1nc2sccc2c(=O)n1C1CC1)c1ccccc1 [Formula 22b] | complete loss of inhibition |

Same assay, conditions: 20 nM SAG; read-out: EC50

| SMILES | EC50 [µM] |
| --- | --- |
| C=C(C)Cn1c(SCC(=O)c2cccs2)nc2sc3c(c2c1=O)CCCC3 [EGM1] | 1.34 |

Same assay, conditions: TM3-Gli-Luc reporter line stimulated with 20 nM SAG; mean ± SEM; Table 13; read-out: TM3-Gli-Luc EC50

| SMILES | EC50 [µM] |
| --- | --- |
| C=C(C)Cn1c(SCC(=O)c2cccs2)nccc1=O [Formula 12] | > 20 |
| C=C(C)Cn1c(SCC(=O)c2cccs2)nccc1=O [Formula 14a] | > 20 |

Same assay, conditions: Table 9A; read-out: TM3 G8 Luciferase EC 50

| SMILES | EC50 [µM] |
| --- | --- |
| O=C(CSc1nc2sccc2c(=O)n1C1CC1)c1cccs1 [JEH-1-065-2] | 1.09 |
| O=C(CSc1nc2ccccc2c(=O)n1C1CC1)c1cccs1 [JEH-1-134] | 0.713 |
| O=C(CSc1nc2ncccc2c(=O)n1C1CC1)c1cccs1 [JEH-1-137] | 3.32 |
| O=C(CSc1nc2sc3c(c2c(=O)n1C1CC1)CCOC3)c1cccs1 [JEH-1-161-1] | 19.1 |
| O=C(CSc1nc2sc3c(c2c(=O)n1C1CC1)CCSC3)c1cccs1 [JEH-1-161-2] | 9.55 |
| O=C(CSc1nc2sc3ccccc3c2c(=O)n1C1CC1)c1ccccc1 [JEH-4-055-1] | 16.6 |
| O=C(CSc1nc2sc3ccccc3c2c(=O)n1C1CC1)N1CCCCC1 [JEH-4-055-2] | 6.03 |
| C=C(C)Cn1c(SCCc2cccs2)nc2sc3c(c2c1=O)CCCC3 [JEH-4-135] | 5.5 |
| C=C(C)Cn1c(SCC(=O)c2cccs2)nc2sc3c(c2c1=O)CCSC3 [JEH-4-143] | 2.51 |
| C=C(C)Cn1c(NCC(=O)c2cccs2)nc2sc3c(c2c1=O)CCCC3 [JEH-5-052] | 25 |
| Cc1sc2nc(SCC(=O)c3ccccc3)n(C3CC3)c(=O)c2c1C [JEH-5-087] | 31.6 |
